We go through 6 compounds from ChEMBL document CHEMBL1139479, “Enantioselective nonsteroidal aromatase inhibitors identified through a multidisciplinary medicinal chemistry approach” (J Med Chem, 2005).

Structures are written as SMILES.

This data set deals with T1, CYP17 (steroid 17-alpha-hydroxylase/17,20 lyase) (Homo sapiens, UniProt P05093).
T1 sequence (P05093 whole entry): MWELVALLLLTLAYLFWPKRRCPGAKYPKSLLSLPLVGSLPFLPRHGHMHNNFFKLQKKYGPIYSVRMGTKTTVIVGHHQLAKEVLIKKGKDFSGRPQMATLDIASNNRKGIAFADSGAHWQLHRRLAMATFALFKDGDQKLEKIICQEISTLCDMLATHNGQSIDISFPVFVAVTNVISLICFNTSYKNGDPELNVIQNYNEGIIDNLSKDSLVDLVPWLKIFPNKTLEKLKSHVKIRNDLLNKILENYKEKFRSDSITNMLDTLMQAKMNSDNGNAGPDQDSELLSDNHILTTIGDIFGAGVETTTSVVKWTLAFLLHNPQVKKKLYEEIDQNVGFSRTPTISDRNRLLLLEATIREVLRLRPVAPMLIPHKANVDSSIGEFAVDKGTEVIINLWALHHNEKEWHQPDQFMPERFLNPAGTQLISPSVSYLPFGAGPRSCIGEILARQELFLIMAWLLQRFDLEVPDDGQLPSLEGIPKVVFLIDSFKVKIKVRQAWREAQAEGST
Nature of the data set: in vitro.
Description: Inhibition of human CYP17 expressed in Escherichia coli at 2.5 uM
In turn, `O=c1c([C@@H](c2ccc(Br)cc2)n2ccnc2)coc2ccccc12` registered an inhibition at 2.5 µM of 17%.

Compound `O=c1c([C@@H](c2ccc([N+](=O)[O-])cc2)n2ccnc2)coc2ccccc12` showed an inhibition at 2.5 µM of 20%.

For `N#Cc1ccc([C@H](c2coc3ccccc3c2=O)n2ccnc2)cc1`, the inhibition at 2.5 µM amounted to 6%.

Consider `N#Cc1ccc([C@@H](c2coc3ccccc3c2=O)n2ccnc2)cc1`, for which at 2.5 µM the inhibition was 6%.

Compound `O=c1c([C@H](c2ccc(Br)cc2)n2ccnc2)coc2ccccc12` had an inhibition at 2.5 µM of 13%.

On to `O=c1c([C@H](c2ccc([N+](=O)[O-])cc2)n2ccnc2)coc2ccccc12`, for which the inhibition at 2.5 µM amounted to 12%.
